Experimental data published in patent US20110015162A1, “15,16-Methylene-17-hydroxy-19-nor-21-carboxylic acid-steroid Y-lactone derivative, use thereof and medicinal products containing the derivative” (Bayer Schering Pharma Aktiengesellschaft, priority 2007, published 2011).
pEC50, pIC50: −log10 of the molar value. Where two headings read alike, the source gives them in different places.

How the values were obtained:
androgen receptor [1] = target: T1, androgen receptor (Homo sapiens, UniProt P10275); assay: Androgen receptor binding test; set-up: expressed in transfected cells; details: reference substance 3H-testosterone
T1 sequence (P10275 1-920): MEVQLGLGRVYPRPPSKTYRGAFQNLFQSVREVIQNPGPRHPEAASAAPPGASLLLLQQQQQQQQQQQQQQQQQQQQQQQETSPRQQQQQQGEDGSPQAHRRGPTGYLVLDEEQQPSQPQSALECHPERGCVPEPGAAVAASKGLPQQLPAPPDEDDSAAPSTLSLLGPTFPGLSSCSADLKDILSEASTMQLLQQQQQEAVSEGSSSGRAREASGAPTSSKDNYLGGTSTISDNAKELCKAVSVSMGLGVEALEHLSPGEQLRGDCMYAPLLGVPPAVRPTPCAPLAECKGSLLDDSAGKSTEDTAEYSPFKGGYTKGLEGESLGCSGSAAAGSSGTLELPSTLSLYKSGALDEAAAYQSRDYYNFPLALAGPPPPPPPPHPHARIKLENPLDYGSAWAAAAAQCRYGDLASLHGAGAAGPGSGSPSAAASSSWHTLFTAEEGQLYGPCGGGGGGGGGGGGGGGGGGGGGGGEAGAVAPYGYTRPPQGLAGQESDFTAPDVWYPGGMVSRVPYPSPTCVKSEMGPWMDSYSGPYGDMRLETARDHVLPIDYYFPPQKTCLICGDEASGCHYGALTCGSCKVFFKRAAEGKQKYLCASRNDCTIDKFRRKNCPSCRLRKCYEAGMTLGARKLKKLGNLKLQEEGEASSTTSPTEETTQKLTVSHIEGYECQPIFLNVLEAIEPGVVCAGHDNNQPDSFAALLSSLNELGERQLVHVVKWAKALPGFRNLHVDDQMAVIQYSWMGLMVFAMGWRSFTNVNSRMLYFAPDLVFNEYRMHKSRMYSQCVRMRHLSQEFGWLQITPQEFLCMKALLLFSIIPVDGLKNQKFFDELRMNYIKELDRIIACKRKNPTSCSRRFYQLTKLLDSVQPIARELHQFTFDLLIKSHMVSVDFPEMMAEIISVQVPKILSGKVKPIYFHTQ

[2] = target: T2, mineralocorticoid receptor (Homo sapiens, UniProt P08235); assay: Mineralocorticoid receptor binding test; set-up: made in house; host or cells: Hi5 insect cells (cytosol); details: reference substance 3H-aldosterone, cytosol from MR-expressing insect cells (Hi5)
T2 sequence (P08235 1-984): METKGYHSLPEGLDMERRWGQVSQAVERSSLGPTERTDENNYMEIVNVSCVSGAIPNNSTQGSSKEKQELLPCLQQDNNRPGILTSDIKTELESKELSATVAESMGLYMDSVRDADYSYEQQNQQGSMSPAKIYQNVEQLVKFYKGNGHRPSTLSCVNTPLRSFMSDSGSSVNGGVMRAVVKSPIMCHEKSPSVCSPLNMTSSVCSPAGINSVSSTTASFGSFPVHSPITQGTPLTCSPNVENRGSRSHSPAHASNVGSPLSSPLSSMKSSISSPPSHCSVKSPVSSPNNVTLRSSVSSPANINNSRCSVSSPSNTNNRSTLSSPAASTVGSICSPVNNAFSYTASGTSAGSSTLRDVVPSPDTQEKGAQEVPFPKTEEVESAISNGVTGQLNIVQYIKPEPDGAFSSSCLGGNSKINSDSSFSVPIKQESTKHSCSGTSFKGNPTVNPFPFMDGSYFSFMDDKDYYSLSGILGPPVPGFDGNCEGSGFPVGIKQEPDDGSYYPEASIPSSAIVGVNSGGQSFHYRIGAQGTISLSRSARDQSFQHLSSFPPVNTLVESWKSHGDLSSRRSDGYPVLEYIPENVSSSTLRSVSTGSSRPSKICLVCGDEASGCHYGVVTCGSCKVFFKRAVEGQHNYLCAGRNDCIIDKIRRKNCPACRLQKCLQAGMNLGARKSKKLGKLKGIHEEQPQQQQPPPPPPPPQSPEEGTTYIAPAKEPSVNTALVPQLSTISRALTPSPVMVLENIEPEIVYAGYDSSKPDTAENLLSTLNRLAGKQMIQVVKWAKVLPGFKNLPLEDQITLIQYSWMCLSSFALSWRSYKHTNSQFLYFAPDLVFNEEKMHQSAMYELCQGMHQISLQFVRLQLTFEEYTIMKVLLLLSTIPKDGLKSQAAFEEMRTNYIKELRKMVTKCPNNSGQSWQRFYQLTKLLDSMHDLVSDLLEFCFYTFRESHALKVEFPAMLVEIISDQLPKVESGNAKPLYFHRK
Protocol: Using cytosol from progesterone receptor-expressing insect cells (Hi5), competitive binding to the progesterone receptor was determined from the ability to displace ^3H-progesterone as reference substance from the receptor.
2. Mineralocorticoid Receptor Binding Test:
The test was carried out as in 1, with the following modifications: cytosol from mineralocorticoid receptor-expressing insect cells (Hi5) was used, and the reference substance was ^3H-aldosterone.

androgen receptor [3] = target: T1, androgen receptor; assay: Androgenic/antiandrogenic action by transactivation test (PC3 reporter cells); assay type: cell-based; set-up: expressed in transfected cells; host or cells: PC3 cells
Protocol: The test compounds were added eight hours later, and the cells were incubated with the compounds for 16 hours. The tests were carried out in triplicate. At the end of incubation the medium containing the effector was removed and replaced with lysis buffer. After luciferase assay substrate (Promega, #E1501) had been added, the 96-well plates were then put in a microplate luminometer (Pherastar, BMG Labtech), and the luminescence was measured. The IC50 values were evaluated using software for calculating dose-effect relations.
6. Determination of Androgenic/Antiandrogenic Action by Means of Transactivation Tests:
The androgenic/antiandrogenic action of the test substances was determined as for the transactivation tests described above.
The following modifications were made: In this case reporter cell lines were used (PC3 cells) that express the androgen receptor, and a reporter construct that contains luciferase under the control of a steroid hormone-responsive promoter.
For determination of the antiandrogenic efficacy, 0.05 nM R1881 was added to the cells, in order to achieve almost maximum stimulation of the reporter gene.

[4] = PC-3, read-out: Androgen receptor Agonism efficacy
[5] = PC-3, read-out: Androgen receptor Antagonism efficacy

SMILES	Androgen receptor Competition factor (androgen receptor [1])	Mineralocorticoid receptor (MR) Competition factor [2]	pEC50 (androgen receptor [3])	Emax (androgen receptor [3]; [4])	Emax (androgen receptor [3]; [5])	pIC50 (androgen receptor [3])
C=C[C@@H]1CC2=CC(=O)CC[C@@H]2[C@H]2CC[C@@]3(CC)[C@@H]([C@@H]4C[C@@H]4[C@@]34C=CC(=O)O4)[C@@H]21 [Example 6A, 17β-Hydroxy-7α-vinyl-18-methyl-15β,16β-methylene-19-nor-17α-pregna-4,20(Z)-dien-3-one-21-carboxylic acid γ-lactone]	1.7	1.5	9.01	118%	5%	–
C[C@]12CC[C@H]3[C@H]([C@@H]1[C@H]1C[C@H]1[C@@]21C=CC(=O)O1)[C@H](C1CC1)CC1=CC(=O)CC[C@@H]13 [Example 17A, 17β-Hydroxy-7α-cyclopropyl-15α,16α-methylene-19-nor-17α-pregna-4,20(Z)-dien-3-one-21-carboxylic acid γ-lactone]	5.2	2.6	7.64	40.8%	33.7%	7.96
CC[C@]12CC[C@H]3[C@@H](C[C@@H](CO)C4=CC(=O)CC[C@@H]43)[C@@H]1[C@@H]1C[C@@H]1[C@@]21C=CC(=O)O1 [Example 10, 17β-Hydroxy-6β-hydroxymethylene-18-methyl-15β,16β-methylene-19-nor-17α-pregna-4,20(Z)-dien-3-one-21-carboxylic acid γ-lactone]	1000.0	2.7	6.89	17.9%	15.6%	6.80
C[C@@H]1CC2=CC(=O)CC[C@@H]2[C@H]2CC[C@@]3(C)[C@@H]([C@H]4C[C@H]4[C@@]34C=CC(=O)O4)[C@@H]21 [Example 14A, 17β-Hydroxy-7α-methyl-15α,16α-methylene-19-nor-17α-pregna-4,20(Z)-dien-3-one-21-carboxylic acid γ-lactone]	2.3	1.3	7.89	41.8%	21%	8.82
CC[C@@H]1CC2=CC(=O)CC[C@@H]2[C@H]2CC[C@@]3(C)[C@@H]([C@H]4C[C@H]4[C@@]34C=CC(=O)O4)[C@H]12 [Example 15A, 17β-Hydroxy-7α-ethyl-15α,16α-methylene-19-nor-17α-pregna-4,20(Z)-dien-3-one-21-carboxylic acid γ-lactone]	2.2	0.8	7.96	49.4%	5%	–
C[C@]12CC[C@H]3[C@@H](CCC4=C(Cl)C(=O)CC[C@@H]43)[C@@H]1[C@H]1C[C@H]1[C@@]21C=CC(=O)O1 [Example 18, 4-Chloro-17β-hydroxy-15α,16α-methylene-19-nor-17α-pregna-4,20(Z)-dien-3-one-21-carboxylic acid γ-lactone]	7.3	35.0	7.92	71.5%	5%	–
C[C@]12CC[C@H]3[C@@H](C=CC4=CC(=O)CC[C@@H]43)[C@@H]1[C@H]1C[C@H]1[C@@]21C=CC(=O)O1 [Example 13, 17β-Hydroxy-15α,16α-methylene-19-nor-17α-pregna-4,6,20(Z)-trien-3-one-21-carboxylic acid γ-lactone]	163.2	1.6	6.92	14.4%	47.4%	7.00
CC[C@]12CC[C@H]3[C@@H](C=CC4=CC(=O)CC[C@@H]43)[C@@H]1[C@@H]1C[C@@H]1[C@@]21C=CC(=O)O1 [Example 3, 17β-Hydroxy-18-methyl-15β,16β-methylene-19-nor-17α-pregna-4,6,20(Z)-trien-3-one-21-carboxylic acid γ-lactone]	62.9	1.5	6.92	25.4%	5%	–
CC[C@]12CC[C@H]3[C@@H]([C@@H]4C[C@@H]4C4=CC(=O)CC[C@@H]43)[C@@H]1[C@@H]1C[C@@H]1[C@@]21C=CC(=O)O1 [Example 2, 6α,7α;15β,16β-Bismethylene-17β-hydroxy-18-methyl-19-nor-17α-pregna-4,20(Z)-dien-3-one-21-carboxylic acid γ-lactone]	49.6	4.4	6.89	32.6%	5%	–
C[C@]12CC[C@H]3[C@@H](CCC4=C(Cl)C(=O)CC[C@@H]43)[C@@H]1[C@@H]1C[C@@H]1[C@@]21C=CC(=O)O1 [Example 27, 4-Chloro-17β-hydroxy-15β,16β-methylene-19-nor-17α-pregna-4,20(Z)-dien-3-one-21-carboxylic acid γ-lactone]	36.4	47.0	7.16	66.9%	5%	–
C[C@]12CC[C@H]3[C@@H](C[C@@H](CO)C4=CC(=O)CC[C@@H]43)[C@@H]1[C@@H]1C[C@@H]1[C@@]21C=CC(=O)O1 [Example 21, 17β-Hydroxy-6β-hydroxymethylene-15β,16β-methylene-19-nor-17α-pregna-4,20(Z)-dien-3-one-21-carboxylic acid γ-lactone]	1000.0	–	–	5%	15.7%	6.30
